# Measurements from paper PMC6813295, “A tumour-selective cascade activatable self-detained system for drug delivery and cancer imaging” (Nature Communications, 2019).
# System: H460 tumour-bearing nude mice
# Test: In vivo antitumor efficacy and safety of treatment
# Set-up: species or system mouse
# Details: five times, n = 5
# From the text: Data are presented as mean ± s.d.
# (1 picture or pasted object on this page, not shown here)
smiles,measurement,setting,value
"COc1cccc2c1C(=O)c1c(O)c3c(c(O)c1C2=O)C[C@@](O)(C(=O)CO)C[C@@H]3O[C@H]1C[C@H](N)[C@H](O)[C@H](C)O1 [DOX, doxorubicin]",mean tumour volume after 14 days,"i.v. DOX dose 2.0 mg/kg, once every other day",854 mm^3
same,median survival time,"i.v. identical DOX dose 2.0 mg/kg, Kaplan–Meier",12 days
